Data reported in patent US12653856B2, “Gynostemma pentaphyllum tea or Gynostemma pentaphyllum tea extract containing gypenoside L and gypenoside LI and antiobesity use thereof” (BIONIC TRADING CORPORATION, priority 2021, dated 2026).
Marks after values point to notes of the source that are not given here.

Tested on: male ICR mice on high-fat feed
Assay: Body fat and body weight reduction in mice given high-fat feed
Type: in vivo, mouse
Conditions: extracts 300 mg/kg
From the text: As experimental animals, 4-week-old male ICR mice were purchased from Orient Bio and acclimated for a week. Each group consisted of 10 animals. For a normal diet group (G1) and high-fat diet groups (G2 to G6), normal feed (energy ratio (kcal %); protein:carbohydrate:fat=20:70:10) or high-fat feed (energy ratio (kcal %); protein:carbohydrate:fat=20:20:60) purchased from Research Diets, Inc. (New Brunswick, NJ, USA) was provided, respectively. The feed and water were allowed freely. The specific compositions of the normal feed and the high-fat feed are described in Table 6. The test substance was administered orally at regular intervals for 8 weeks by dissolving in physiological saline (G3 to G6). For G1 and G2, physiological saline containing no test substance was administered orally. The experimental animal breeding room was maintained at 12-hour lighting cycles under the condition of 23±3° C., 50 t 10% relative humidity and 10-15 ventilations/hour. The animal experiment was conducted in accordance with the regulations of the Hallym University Institutional Animal Care and Use Committee (Hallym 2018-31). The experimental animals were divided into […]: normal group (G) to which normal feed was given for 6 weeks; control group (G2) to which high-fat feed was given; G3 to which high-fat feed was given and 300 mg/kg of the Gynostemma pentaphyllum tea extract of Example was administered; G4 to which 300 mg/kg of the Gynostemma pentaphyllum tea extract of Comparative Example was administered; G5 to which 300 mg/kg of the Gynostemma pentaphyllum tea extract of Comparative Example 2 was administered; G6 to which 300 mg/kg of the Gynostemma pentaphyllum tea extract of Comparative Example 3 was administered; […] The composition of the test groups is described specifically in Table 7. Initial body weight, final body weight, total body weight gain, feed intake, body fat percentage and feed efficiency ratio (FER) were measured while providing the feed specified in 6-2 to each test group for 8 weeks. Specifically, the body weight was measured using a digital scale once a week at the same time. The feed efficiency ratio (FER) was calculated by the following equation. The result of investigating the initial body weight, final body weight, total body weight gain, feed intake, body fat percentage and feed efficiency ratio for 8 weeks is given in Table 8. Feed efficiency ratio (FER)=body weight gain (g)/feed intake (g) [Equation]

[1] = high-fat feed, 8 weeks oral, orlistat 30 mg/kg

Structure (SMILES): CCCCCCCCCCC[C@@H](C[C@@H]1OC(=O)[C@H]1CCCCCC)OC(=O)[C@H](CC(C)C)NC=O [Orlistat, orlistat]
- Initial body weight (baseline, high-fat feed ICR mice, orlistat 30 mg/kg oral): 21.7 ± 0.2 g
- Feed efficiency ratio (FER) (body weight gain (g)/feed intake (g), high-fat feed, 8 weeks oral, orlistat 30 mg/kg): 0.126 ± 0.005
- Body fat percentage (%) [1]: 36.6 ± 0.7 %
- Body weight gain (%) [1]: 70.97* %
- Final body weight [1]: 37.1 ± 0.6 g
- Total body weight gain [1]: 15.4 ± 0.2 g
- Total feed intake [1]: 122.4 ± 0.3 g
